Results published in patent US10231453B2, “5-substituted imidazole derivatives” (BAYER CROPSCIENCE AKTIENGESELLSCHAFT, priority 2015, dated 2019).
Where two headings read alike, the source gives them in different places.

Legend:
Septoria tritici [1] = assay: In vivo preventive test on Septoria tritici (leaf spot on wheat), Examples E, Q3 and R5; details: Zymoseptoria tritici, 576 h
Puccinia recondita = assay: In vivo preventive test on Puccinia recondita (brown rust on wheat), Examples C and R3; details: Puccinia recondita, 264 h, preventive spray, evaluated 11 days after inoculation
[2] = test system: Blumeria graminis fsp. hordei; assay: In vivo preventive Blumeria test (barley), Example K; details: 168 h, 500 ppm of active ingredient, preventive spray, evaluated 7 days after inoculation, read-out: efficacy
Description: After the spray coating has been dried, the plants are dusted with spores of Blumeria graminis fsp. hordei.

Botrytis cinerea [3] = assay: In vivo preventive test on Botrytis cinerea (grey mould) on gherkin, Examples B, Q1 and R2; details: for pest or weed control at 500 ppm / pest or weed control at 100 ppm: Botrytis cinerea; for pest or weed control at 100 ppm: Example Q1, rate of application 100 ppm
Alternaria brassicae = assay: In vivo preventive test on Alternaria brassicae (leaf spot on radish), Examples A and R1; details: Alternaria brassicae, 144 h
Leptosphaeria nodorum [4] = assay: In vivo preventive Leptosphaeria nodorum test (wheat), Example N; details: Parastagonospora nodorum, 192 h, 500 ppm of active ingredient, preventive spray, evaluated 8 days after inoculation, read-out: efficacy
Description: After the spray coating has been dried, the plants are sprayed with a spore suspension of Leptosphaeria nodorum.

[5] = Measurement of LogP values by HPLC on reversed phase columns (EEC directive 79/831 Annex V.A8); assay type: physicochemical; details: method [a]: LC-UV, acidic range, 0.1% formic acid in water and acetonitrile as eluent; Table 1
Procedure: Measurement of Log P values was performed as outlined above.

Leptosphaeria nodorum [6] = assay: In vitro test for the calculation of the ED50-value with microorganisms, Example Q4: Leptosphaeria nodorum; assay type: cell-based; details: liquid culture, spore suspension, 4 to 7 days incubation, spectrometric measurement of mycelium growth
Septoria tritici [7] = assay: In vitro test for the calculation of the ED50-value with microorganisms, Example Q4: Septoria tritici; assay type: cell-based; details: liquid culture, spore suspension, 4 to 7 days incubation, spectrometric measurement of mycelium growth
Sphaerotheca fuliginea = assay: In vivo preventive test on Sphaerotheca fuliginea (powdery mildew on cucurbits), Examples F and R6; details: Podosphaera fuliginea, 360 h, preventive spray, evaluated 15 days after inoculation
Pyrenophora teres = assay: In vivo preventive test on Pyrenophora teres (net blotch on barley), Examples D, Q2 and R4; details: Pyrenophora teres, 336 h
Venturia inaequalis = assay: In vivo preventive Venturia test (apples), Example J; details: 240 h, read-out: efficacy
Procedure: After the spray coating has dried on, the plants are inoculated with an aqueous conidia suspension of the causal agent of apple scab (Venturia inaequalis) and then remain for 1 day in an incubation cabinet at approximately 20° C. and a relative atmospheric humidity of 100%.
The plants are then placed in a greenhouse at approximately 21° C. and a relative atmospheric humidity of approximately 90%.
The test is evaluated 10 days after the inoculation.

Alternaria solani = assay: In vivo preventive Alternaria test (tomatoes), Example H; details: 72 h, 100 ppm of active ingredient, preventive spray, evaluated 3 days after inoculation, read-out: efficacy
Phakopsora pachyrhizi = assay: In vivo preventive Phakopsora test (soybeans), Example I; details: 168 h, 100 ppm of active ingredient, preventive spray, evaluated 7 days after inoculation, read-out: efficacy
Botrytis cinerea [8] = assay: In vitro test for the calculation of the ED50-value with microorganisms, Example Q4: Botrytis cinerea; assay type: cell-based; details: liquid culture, spore suspension, 4 to 7 days incubation, spectrometric measurement of mycelium growth
Fusarium culmorum [9] = assay: In vitro test for the calculation of the ED50-value with microorganisms, Example Q4: Fusarium culmorum; assay type: cell-based; details: liquid culture, spore suspension, 4 to 7 days incubation, spectrometric measurement of mycelium growth
Procedure: • Solvent: Dimethyl sulfoxide • Culture medium: 14.6 g anhydrous D-glucose (VWR), 7.1 g Mycological Peptone (Oxoid), 1.4 g granulated Yeast Extract (Merck), QSP liter • Inoculum: Spore suspension
Fungicides were solubilized in DMSO and the solution used to prepare the required range of concentrations. The final concentration of DMSO used in the assay was ≤1%.
A spore suspension was prepared and diluted to the desired spore density.
Fungicides were evaluated for their ability to inhibit spore germination and mycelium growth in liquid culture assay. The compounds were added in the desired concentration to the culture medium with spores. After 4 to 7 days incubation, fungi-toxicity of compounds was determined by spectrometric measurement of mycelium growth. Inhibition of fungal growth was determined by comparing the absorbance values in wells containing the fungicides with the absorbance in control wells without fungicides.

Pyricularia oryzae = assay: whole plant or invertebrate; assay type: in vivo; details: 192 h, read-out: efficacy
Uromyces appendiculatus = assay: In vivo preventive test on Uromyces appendiculatus (bean rust), Examples G and R7; details: 264 h, preventive spray, evaluated 11 days after inoculation
[10] = test system: Fusarium nivale (var. majus); assay: In vivo preventive Fusarium nivale (var. majus) test (wheat), Example O; details: Microdochium nivale, 120 h, 500 ppm of active ingredient, preventive spray, evaluated 5 days after inoculation, read-out: efficacy
Description: After the spray coating has been dried, the plants are slightly injured by using a sandblast and afterwards they are sprayed with a conidia suspension of Fusarium nivale (var. majus).

Fusarium graminearum = assay: whole plant or invertebrate; assay type: in vivo; details: in Hordeum vulgare, 120 h, read-out: efficacy
Fusarium culmorum [11] = assay: In vivo preventive Fusarium culmorum test (wheat), Example L; details: 120 h, 500 ppm of active ingredient, preventive spray, evaluated 5 days after inoculation, read-out: efficacy
Procedure: After the spray coating has been dried, the plants are slightly injured by using a sandblast and afterwards they are sprayed with a conidia suspension of Fusarium culmorum.
The test is evaluated 5 days after the inoculation.

[12] = 500 ppm of active ingredient, wheat, preventive spray, evaluated 24 days after inoculation, read-out: efficacy
[13] = Example Q3, rate of application 100 ppm, wheat, read-out: Efficacy in %
[14] = Example Q3, rate of application 500 ppm, wheat, read-out: Efficacy in %
[15] = Example R5, wheat, preventive spray, 100 ppm, evaluated 24 days after inoculation, read-out: Efficacy in %
[16] = Example R5, wheat, preventive spray, 500 ppm, evaluated 24 days after inoculation, read-out: Efficacy in %
[17] = 500 ppm of active ingredient, wheat, read-out: efficacy
[18] = Example R3, wheat, read-out: Efficacy in %
[19] = Example R3, wheat, 500 ppm, read-out: Efficacy in %
[20] = 500 ppm of active ingredient, preventive spray, evaluated 4 to 5 days after inoculation, read-out: efficacy
[21] = Example Q1, rate of application 500 ppm, read-out: Efficacy in %
[22] = Example R2, rate of application 100 ppm
[23] = Example R2, rate of application 500 ppm
[24] = 500 ppm of active ingredient, gherkin, read-out: efficacy
[25] = Example R6, gherkin, read-out: Efficacy in %
[26] = Example R6, gherkin, 500 ppm, read-out: Efficacy in %
[27] = 500 ppm of active ingredient, preventive spray, evaluated 14 days after inoculation, read-out: efficacy
[28] = Example Q2, rate of application 100 ppm, read-out: Efficacy in %
[29] = Example Q2, rate of application 500 ppm, read-out: Efficacy in %
[30] = Example R4, rate of application 100 ppm, read-out: Efficacy in %
[31] = Example R4, rate of application 500 ppm, read-out: Efficacy in %
[32] = 500 ppm of active ingredient, bean, read-out: efficacy
[33] = Example R7, bean, read-out: Efficacy in %
[34] = Example R7, bean, 500 ppm, read-out: Efficacy in %

SMILES	pest or weed control at 500 ppm (Septoria tritici [1]; [12])	pest or weed control at 100 ppm (Septoria tritici [1]; [13])	pest or weed control at 500 ppm (Septoria tritici [1]; [14])	pest or weed control at 100 ppm (Septoria tritici [1]; [15])	pest or weed control at 500 ppm (Septoria tritici [1]; [16])	pest or weed control at 500 ppm (Puccinia recondita; [17])	pest or weed control at 100 ppm (Puccinia recondita; [18])	pest or weed control at 500 ppm (Puccinia recondita; [19])	pest or weed control at 500 ppm [2]	pest or weed control at 500 ppm (Botrytis cinerea [3]; [20])	pest or weed control at 100 ppm (Botrytis cinerea [3]; read-out: Efficacy in %)	pest or weed control at 500 ppm (Botrytis cinerea [3]; [21])	Efficacy in % (Botrytis cinerea [3]; [22])	Efficacy in % (Botrytis cinerea [3]; [23])	pest or weed control at 500 ppm (Leptosphaeria nodorum [4])	Leptosphaeria nodorum ED50 value in ppm (Leptosphaeria nodorum [6])	Septoria tritici ED50 value in ppm (Septoria tritici [7])	pest or weed control at 500 ppm (Sphaerotheca fuliginea; [24])	pest or weed control at 100 ppm (Sphaerotheca fuliginea; [25])	pest or weed control at 500 ppm (Sphaerotheca fuliginea; [26])	also measured
OC(Cc1ccc(Cl)cc1F)(Cn1cncc1Cl)C1(Cl)CC1 (centres unmarked) [Example I-27, 2-(1-chlorocyclopropyl)-1-(4-chloro-2-fluorophenyl)-3-(5-chloro-1H-imidazol-1-yl)propan-2-ol]	90 to 100%	81%	94%	94%	81%	90 to 100%	89%	98%	90 to 100%	90 to 100%	99%	100%	99%	100%	90 to 100%	<0.006 ppm	<0.006 ppm	90 to 100%	100%	100%	pest or weed control at 500 ppm (Alternaria brassicae; 500 ppm of active ingredient, preventive spray, evaluated 6 days after inoculation, read-out: efficacy): 90 to 100%; pest or weed control at 100 ppm (Alternaria brassicae; Example R1, rate of application 100 ppm, read-out: Efficacy in %): 50%; pest or weed control at 500 ppm (Alternaria brassicae; Example R1, rate of application 500 ppm, read-out: Efficacy in %): 92%; chromatographic logP [5]: 2.48; pest or weed control at 500 ppm (Pyrenophora teres; [27]): 90 to 100%; pest or weed control at 100 ppm (Pyrenophora teres; [28]): 94%; pest or weed control at 500 ppm (Pyrenophora teres; [29]): 98%; pest or weed control at 100 ppm (Pyrenophora teres; [30]): 94%; pest or weed control at 500 ppm (Pyrenophora teres; [31]): 98%; pest or weed control at 100 ppm (Venturia inaequalis): 90 to 100%; pest or weed control at 100 ppm (Alternaria solani): 90 to 100%; pest or weed control at 100 ppm (Phakopsora pachyrhizi): 90 to 100%; Botrytis cinerea ED50 value in ppm (Botrytis cinerea [8]): 0.02 ppm; Fusarium culmorum ED50 value in ppm (Fusarium culmorum [9]): <0.006 ppm; pest or weed control at 500 ppm (Pyricularia oryzae): 90 to 100%; pest or weed control at 500 ppm (Uromyces appendiculatus; [32]): 90 to 100%; pest or weed control at 100 ppm (Uromyces appendiculatus; [33]): 20%; pest or weed control at 500 ppm (Uromyces appendiculatus; [34]): 100%
N#Cc1cncn1CC(O)(Cc1ccc(Cl)cc1F)C1(Cl)CC1 (centres unmarked) [Example I-29]	90 to 100%	100%	100%	100%	100%	90 to 100%	94%	98%	90 to 100%	90 to 100%	86%	99%	86%	99%	90 to 100%	0.02 ppm	<0.006 ppm	90 to 100%	100%	100%	pest or weed control at 500 ppm [10]: 90 to 100%; pest or weed control at 500 ppm (Pyrenophora teres; [27]): 80 to 89%; pest or weed control at 100 ppm (Pyrenophora teres; [28]): 83%; pest or weed control at 500 ppm (Pyrenophora teres; [29]): 89%; pest or weed control at 100 ppm (Pyrenophora teres; [30]): 83%; pest or weed control at 500 ppm (Pyrenophora teres; [31]): 89%; pest or weed control at 100 ppm (Venturia inaequalis): 90 to 100%; pest or weed control at 100 ppm (Alternaria solani): 90 to 100%; pest or weed control at 100 ppm (Phakopsora pachyrhizi): 90 to 100%; Botrytis cinerea ED50 value in ppm (Botrytis cinerea [8]): 0.26 ppm; Fusarium culmorum ED50 value in ppm (Fusarium culmorum [9]): 0.01 ppm; pest or weed control at 500 ppm (Fusarium graminearum): 90 to 100%; pest or weed control at 500 ppm (Fusarium culmorum [11]): 80 to 89%; pest or weed control at 500 ppm (Uromyces appendiculatus; [32]): 90 to 100%; pest or weed control at 100 ppm (Uromyces appendiculatus; [33]): 100%; pest or weed control at 500 ppm (Uromyces appendiculatus; [34]): 100%
